Drawing on ChEMBL document CHEMBL4052687, “Synthesis of MeON-neoglycosides of digoxigenin with 6-deoxy- and 2,6-dideoxy-d-glucose derivatives and their anticancer activity” (2017), this text covers viability and Activity for 24 compounds.

Structures are written as SMILES. Activity calls are given as the source filed them. The calls are words filed in the database; no cut-off is given here.

Test [1] concerns NCI-H460. In words: Cytotoxicity in human NCI-H460 cells assessed as cell viability at 50 nM incubated for 48 hrs by MTT assay. In kind it is functional. The note with it: NCI-H460, 48 h, read-out: Activity.
Test [2] addresses Nuclear receptor subfamily 4immunitygroup A member 1 (Homo sapiens) (UniProt P22736). Description: Induction of Nur77 protein translocation from nucleus to cytoplasm in human NCI-H460 cells at 20 nM incubated for 3 hrs by immunofluorescence microscopy. Type of test: cell-based.
The test system of test [3] is NCI-H460. In words: Induction of Nur77 protein expression in human NCI-H460 cells at 20 nM incubated for 3 hrs by Western blot method relative to digoxin. Type of test: functional, cell-based. Background: Immunoblotting shows a protein as a band on a membrane.

Chain of Nuclear receptor subfamily 4immunitygroup A member 1 (Homo sapiens) (P22736 whole entry): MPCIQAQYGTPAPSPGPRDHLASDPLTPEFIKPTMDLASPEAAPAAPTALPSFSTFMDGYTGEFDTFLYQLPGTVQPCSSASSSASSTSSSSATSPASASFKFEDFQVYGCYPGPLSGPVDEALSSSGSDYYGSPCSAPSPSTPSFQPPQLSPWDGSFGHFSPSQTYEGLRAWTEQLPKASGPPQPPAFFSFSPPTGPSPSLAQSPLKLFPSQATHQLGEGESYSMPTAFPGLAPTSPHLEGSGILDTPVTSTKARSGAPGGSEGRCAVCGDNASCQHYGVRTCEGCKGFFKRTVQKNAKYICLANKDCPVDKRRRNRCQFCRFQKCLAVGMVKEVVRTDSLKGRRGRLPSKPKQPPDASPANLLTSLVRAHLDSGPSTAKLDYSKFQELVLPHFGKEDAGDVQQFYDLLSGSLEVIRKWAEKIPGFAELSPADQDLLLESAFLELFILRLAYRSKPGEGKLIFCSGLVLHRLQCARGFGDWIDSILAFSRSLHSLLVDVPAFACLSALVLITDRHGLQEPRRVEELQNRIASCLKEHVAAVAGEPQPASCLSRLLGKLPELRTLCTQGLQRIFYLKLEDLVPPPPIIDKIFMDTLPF

Consider `CON([C@H]1CC[C@@]2(C)[C@H](CC[C@@H]3[C@@H]2C[C@@H](O)[C@]2(C)[C@@H](C4=CC(=O)OC4)CC[C@]32O)C1)[C@H]1O[C@@H](CO)[C@H](O)[C@@H](O)[C@@H]1O`, for which the viability at 0.05 µM in the test on NCI-H460 [1] is more than 90%. The result (in test [2]; in the test with NCI-H460 [3]) was Active. Regarding `CO[C@H]1[C@H](O)[C@@H](O)[C@H](N(OC)[C@@H]2CC[C@@]3(C)[C@H](CC[C@@H]4[C@@H]3C[C@@H](O)[C@]3(C)[C@@H](C5=CC(=O)OC5)CC[C@]43O)C2)O[C@@H]1C`, the viability at 0.05 µM in the test with NCI-H460 [1] is more than 90%. Take `CON[C@H]1CC[C@@]2(C)[C@H](CC[C@@H]3[C@@H]2C[C@@H](O)[C@]2(C)[C@@H](C4=CC(=O)OC4)CC[C@]32O)C1`: the outcome with NCI-H460 [3] was inactive. For the compound `CO[C@@H]1[C@@H](O)[C@H](N(OC)[C@@H]2CC[C@@]3(C)[C@H](CC[C@@H]4[C@@H]3C[C@@H](O)[C@]3(C)[C@@H](C5=CC(=O)OC5)CC[C@]43O)C2)O[C@H](C)[C@H]1O`, the viability at 0.05 µM with NCI-H460 [1] is more than 90%. As for `CO[C@@H]1[C@@H](O)[C@H](OC)[C@@H](C)O[C@H]1N(OC)[C@H]1CC[C@@]2(C)[C@H](CC[C@@H]3[C@@H]2C[C@@H](O)[C@]2(C)[C@@H](C4=CC(=O)OC4)CC[C@]32O)C1`, the viability at 0.05 µM with NCI-H460 [1] is more than 90%. Besides, the result (in test [2]; in the test on NCI-H460 [3]) was Active. Turning to `CON[C@@H]1CC[C@@]2(C)[C@H](CC[C@@H]3[C@@H]2C[C@@H](O)[C@]2(C)[C@@H](C4=CC(=O)OC4)CC[C@]32O)C1`, the result with NCI-H460 [3] was inactive. As for `CO[C@@H]1[C@@H](OC)[C@H](O)[C@@H](C)O[C@H]1N(OC)[C@@H]1CC[C@@]2(C)[C@H](CC[C@@H]3[C@@H]2C[C@@H](O)[C@]2(C)[C@@H](C4=CC(=O)OC4)CC[C@]32O)C1`, the viability at 0.05 µM in the test with NCI-H460 [1] is more than 90%. Moreover, the result in test [2] was Active. Regarding `CON([C@@H]1CC[C@@]2(C)[C@H](CC[C@@H]3[C@@H]2C[C@@H](O)[C@]2(C)[C@@H](C4=CC(=O)OC4)CC[C@]32O)C1)[C@@H]1O[C@H](CO)[C@@H](O)[C@H](O)[C@H]1O`, the viability at 0.05 µM in the test with NCI-H460 [1] was more than 90%. For the same compound, in test [2], the outcome was Active.

As for `CO[C@H]1[C@H](O)[C@@H](O)[C@H](N(OC)[C@H]2CC[C@@]3(C)[C@H](CC[C@@H]4[C@@H]3C[C@@H](O)[C@]3(C)[C@@H](C5=CC(=O)OC5)CC[C@]43O)C2)O[C@@H]1C`, the viability at 0.05 µM in the test on NCI-H460 [1] is more than 90%. Turning to `CO[C@@H]1[C@@H](C)O[C@@H](N(OC)[C@H]2CC[C@@]3(C)[C@H](CC[C@@H]4[C@@H]3C[C@@H](O)[C@]3(C)[C@@H](C5=CC(=O)OC5)CC[C@]43O)C2)C[C@H]1OC`, the viability at 0.05 µM in the test on NCI-H460 [1] is more than 90%.

With `CO[C@@H]1[C@@H](O)[C@H](N(OC)[C@H]2CC[C@@]3(C)[C@H](CC[C@@H]4[C@@H]3C[C@@H](O)[C@]3(C)[C@@H](C5=CC(=O)OC5)CC[C@]43O)C2)O[C@H](C)[C@H]1OC`, in the test with NCI-H460 [1], the viability at 0.05 µM is more than 90%. `CO[C@@H]1[C@@H](O)[C@H](O)[C@@H](C)O[C@H]1N(OC)[C@H]1CC[C@@]2(C)[C@H](CC[C@@H]3[C@@H]2C[C@@H](O)[C@]2(C)[C@@H](C4=CC(=O)OC4)CC[C@]32O)C1`: the viability at 0.05 µM in the test on NCI-H460 [1] was more than 90%.

As to `CO[C@@H]1[C@@H](O)[C@H](N(OC)[C@@H]2CC[C@@]3(C)[C@H](CC[C@@H]4[C@@H]3C[C@@H](O)[C@]3(C)[C@@H](C5=CC(=O)OC5)CC[C@]43O)C2)O[C@H](C)[C@H]1OC`, the viability at 0.05 µM with NCI-H460 [1] is more than 90%. The result in test [2] was Active. As for `CO[C@@H]1[C@@H](OC)[C@H](O)[C@@H](C)O[C@H]1N(OC)[C@H]1CC[C@@]2(C)[C@H](CC[C@@H]3[C@@H]2C[C@@H](O)[C@]2(C)[C@@H](C4=CC(=O)OC4)CC[C@]32O)C1`, in the test with NCI-H460 [1], the viability at 0.05 µM was more than 90%.

`CON([C@@H]1CC[C@@]2(C)[C@H](CC[C@@H]3[C@@H]2C[C@@H](O)[C@]2(C)[C@@H](C4=CC(=O)OC4)CC[C@]32O)C1)[C@@H]1O[C@H](C)[C@@H](O)[C@H](O)[C@H]1O`: the viability at 0.05 µM in the test on NCI-H460 [1] was more than 90%. Besides, the result in the test with NCI-H460 [3] was Active. As to `CO[C@@H]1[C@@H](C)O[C@@H](N(OC)[C@@H]2CC[C@@]3(C)[C@H](CC[C@@H]4[C@@H]3C[C@@H](O)[C@]3(C)[C@@H](C5=CC(=O)OC5)CC[C@]43O)C2)C[C@H]1OC`, in the test with NCI-H460 [1], the viability at 0.05 µM was more than 90%. As to `CO[C@@H]1[C@@H](O)[C@H](OC)[C@@H](C)O[C@H]1N(OC)[C@@H]1CC[C@@]2(C)[C@H](CC[C@@H]3[C@@H]2C[C@@H](O)[C@]2(C)[C@@H](C4=CC(=O)OC4)CC[C@]32O)C1`, the viability at 0.05 µM in the test on NCI-H460 [1] is more than 90%. Further, the outcome in test [2] was Active.

Consider `CO[C@@H]1C[C@H](N(OC)[C@@H]2CC[C@@]3(C)[C@H](CC[C@@H]4[C@@H]3C[C@@H](O)[C@]3(C)[C@@H](C5=CC(=O)OC5)CC[C@]43O)C2)O[C@H](C)[C@H]1O`, for which the viability at 0.05 µM in the test with NCI-H460 [1] was more than 90%. For the same compound, the result in test [2] was Active. On to `CON([C@@H]1CC[C@@]2(C)[C@H](CC[C@@H]3[C@@H]2C[C@@H](O)[C@]2(C)[C@@H](C4=CC(=O)OC4)CC[C@]32O)C1)[C@H]1O[C@@H](CO)[C@H](O)[C@@H](O)[C@@H]1O`, for which, in the test on NCI-H460 [1], the viability at 0.05 µM was more than 90%. Further, in the test on NCI-H460 [3], the outcome was Active. In the case of `CON([C@H]1CC[C@@]2(C)[C@H](CC[C@@H]3[C@@H]2C[C@@H](O)[C@]2(C)[C@@H](C4=CC(=O)OC4)CC[C@]32O)C1)[C@@H]1O[C@H](CO)[C@@H](O)[C@H](O)[C@H]1O`, the viability at 0.05 µM in the test with NCI-H460 [1] was more than 90%. Regarding `CON([C@H]1CC[C@@]2(C)[C@H](CC[C@@H]3[C@@H]2C[C@@H](O)[C@]2(C)[C@@H](C4=CC(=O)OC4)CC[C@]32O)C1)[C@@H]1O[C@H](C)[C@@H](O)[C@H](O)[C@H]1O`, the viability at 0.05 µM in the test on NCI-H460 [1] is more than 90%. Take `CO[C@@H]1[C@@H](O)[C@H](O)[C@@H](C)O[C@H]1N(OC)[C@@H]1CC[C@@]2(C)[C@H](CC[C@@H]3[C@@H]2C[C@@H](O)[C@]2(C)[C@@H](C4=CC(=O)OC4)CC[C@]32O)C1`: in the test on NCI-H460 [1], the viability at 0.05 µM was more than 90%. Moreover, the outcome with NCI-H460 [3] was Active. Regarding `CO[C@@H]1C[C@H](N(OC)[C@H]2CC[C@@]3(C)[C@H](CC[C@@H]4[C@@H]3C[C@@H](O)[C@]3(C)[C@@H](C5=CC(=O)OC5)CC[C@]43O)C2)O[C@H](C)[C@H]1O`, the viability at 0.05 µM in the test on NCI-H460 [1] was more than 90%.

Consider `CO[C@@H]1[C@@H](O)[C@H](N(OC)[C@H]2CC[C@@]3(C)[C@H](CC[C@@H]4[C@@H]3C[C@@H](O)[C@]3(C)[C@@H](C5=CC(=O)OC5)CC[C@]43O)C2)O[C@H](C)[C@H]1O`, for which the viability at 0.05 µM in the test on NCI-H460 [1] is more than 90%. For the same compound, the result in test [2] was Active.
